# Earlier results, collected in patent US5756508A, “Muscarine antagonists” (Merck & Co., Inc., priority 1996, dated 1998).
# Legend:
# [1] = system: smooth muscle (ordinarily called m3 type); settings: background statement
# [2] = system: axial elongation of the eye; settings: background statement
# pupil; ciliary muscle = settings: background statement
# [3] = background statement
# [4] = system: muscarinic receptors (antimuscarinic); settings: background statement
Compound,selectivity for smooth muscle (m3 type) receptors [1],inhibition of axial elongation / enlargement of the eye [2],impairment of ocular focusing / near visual work (pupil; ciliary muscle),pupil dilation (mydriasis) (pupil; ciliary muscle),sensitization [3],antimuscarinic action / specificity [4]
"C[N+]1(C)CCC(OC(=O)C(c2ccccc2)c2ccccc2)CC1 [Example 4-DAMP, 4-diphenylacetoxy-N-methylpiperadine methiodide]",relatively selective antagonist for smooth muscle,,,,,
CN1CCc2cccc3c2[C@H]1Cc1ccc(O)c(O)c1-3 [apomorphine],,found to inhibit or actually prevent the axial enlargement of the eye,,,,
CN1[C@@H]2CC[C@H]1C[C@@H](OC(=O)C(CO)c1ccccc1)C2 (stereo partly drawn) [atropine],,,impairs near visual work like reading,causes mydriasis (increase of pupil size),test positive in sensitization assays,long-acting non-specific antimuscarinic agent
CN1CCN(CC(=O)N2c3ccccc3C(=O)Nc3cccnc32)CC1 [pirenzepine],,inhibits axial elongation,,far less effective at pupil dilation than atropine,test positive in sensitization assays,
